Measured values: patent US8017612B2, “Piperazine compound and use thereof as a HCV polymerase inhibitor” (priority 2006, dated 2011)
Counter-ions that a name gives are not always drawn.

How the values were obtained:
[1] = target: T1, HCV polymerase (NS5B) type 1a (Hepatitis C virus genotype 1a, UniProt P26664); assay: Assay of enzyme (HCV polymerase) inhibitory activity, type 1a enzyme; assay type: biochemical, HCV type 1a (cloned from the blood of patients)
T1 construct: made in house; host or cells: Escherichia coli (by the 'similar method' of the 1b enzyme)
Method in brief: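 His-tagged NS5B, C-terminal 47 residues deleted, type 1a at 1.5 μg/ml, with 5 μg/ml HCV 3′UTR substrate RNA, 50 μM ATP/GTP/CTP, 2 μM UTP plus [3H]UTP, pH 7.5 Tris, 5 mM MgCl2; 60 min at 25° C. TCA-precipitated RNA counted by scintillation; IC50 from radioactivity with vs. without compound.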

[2] = target: T2, HCV polymerase (NS5B) type 1b (Hepatitis C virus genotype 1b, UniProt P26663); assay: Assay of enzyme (HCV polymerase) inhibitory activity, type 1b enzyme; assay type: biochemical, HCV BK strain (type 1b)
T2 construct: a region encoding NS5B (J Virol 1991 March, 65(3), 1105-13, 544 amino acids after deletion of 47 amino acids on the C-terminal); 6xHis (C); made in house; host or cells: Escherichia coli
Method in brief: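 His-tagged, C-terminally truncated NS5B (BK strain, 1b; 0.5 μg/ml) incubated with compound 60 min at 25 °C on 3′UTR-derived substrate RNA (5 μg/ml), 50 μM ATP/GTP/CTP, 2 μM UTP plus [3H]UTP, pH 7.5. Acid-precipitated RNA counted; IC50 from radioactivity with and without compound.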

[3] = HCV polymerase inhibitory activity (IC50), 1a, type 1a enzyme 1.5 μg/ml, 25° C., 60 min
[4] = HCV polymerase inhibitory activity (IC50), 1b, type 1b enzyme 0.5 μg/ml, 25° C., 60 min
[5] = HCV polymerase inhibitory activity IC50, 1a, type 1a enzyme
[6] = HCV polymerase inhibitory activity IC50, 1b, type 1b enzyme

| Compound | IC50 [1, 3] [nM] | IC50 [2, 4] [nM] | IC50 [1, 5] [nM] | IC50 [2, 6] [nM] |
| --- | --- | --- | --- | --- |
| CCCc1ccc(CNC(=O)[C@H]2CN(c3cnc4cncnc4n3)CCN2S(=O)(=O)c2ccc(OC(F)(F)F)cc2)cc1 [Example 574, (R)-4-pteridin-7-yl-1-(4-trifluoromethoxy-benzenesulfonyl)-piperazine-2-carboxylic acid 4-propyl-benzylamide] | < 100 | < 100 | – | – |
| CN(C)c1ccc(CNC(=O)C2CN(C(=O)Cc3cccnc3)CCN2S(=O)(=O)c2ccc(I)cc2)cc1 (stereo not shown) [Example 154, 1-(4-iodo-benzenesulfonyl)-4-(2-pyridin-3-yl-acetyl)-piperazine-2-carboxylic acid 4-dimethylamino-benzylamide] | 100 to 1000 | 100 to 1000 | – | – |
| O=C(NCc1ccc(OC(F)(F)F)cc1)[C@H]1CN(c2cnc3c(Cl)cccc3n2)CCN1S(=O)(=O)c1ccc(OC(F)(F)F)cc1 [Example 766, (R)-4-(5-chloro-quinoxalin-2-yl)-1-(4-trifluoromethoxy-benzenesulfonyl)-piperazine-2-carboxylic acid 4-trifluoromethoxy-benzylamide] | – | – | 100 to 1000 | < 100 |
| COc1nc(CNC(=O)[C@H]2CN(C(C)=O)CCN2S(=O)(=O)c2ccc(OC(F)(F)F)cc2)ccc1C [Example 649, (R)-4-acetyl-1-(4-trifluoromethoxy-benzenesulfonyl)-piperazine-2-carboxylic acid (6-methoxy-5-methyl-pyridin-2-ylmethyl)-amide] | > 1000 | > 1000 | – | – |
| COCC1(c2ncc3sc(N4CCN(S(=O)(=O)c5ccc(OC(F)(F)F)cc5)[C@@H](C(=O)NCc5ccc(OC(F)(F)F)cc5)C4)nc3n2)CC1 [Example 1076, (R)-4-[5-(1-methoxymethyl-cyclopropyl)-thiazolo[4,5-d]pyrimidin-2-yl]-1-(4-trifluoromethoxy-benzenesulfonyl)-piperazine-2-carboxylic acid 4-trifluoromethoxy-benzylamide] | – | – | < 100 | < 100 |
| CCC(F)(F)c1ccc(CNC(=O)[C@H]2CN(c3cnc4cnccc4n3)CCN2S(=O)(=O)c2ccc(N(C)C)cc2)cc1 [Example 736, (R)-1-(4-dimethylamino-benzenesulfonyl)-4-pyrido[3,4-b]pyrazin-2-yl-piperazine-2-carboxylic acid 4-(1,1-difluoro-propyl)-benzylamide] | – | – | < 100 | < 100 |
| CC(=O)N1CCN(S(=O)(=O)c2ccc(-c3ccccc3)cc2)[C@@H](C(=O)NCc2ccc(C(C)C)cc2)C1 [Example 206, (R)-4-acetyl-1-(biphenyl-4-sulfonyl)-piperazine-2-carboxylic acid 4-isopropyl-benzylamide] | 100 to 1000 | 100 to 1000 | – | – |
| CC(=O)N1CCN(S(=O)(=O)c2ccc(OC(F)(F)F)cc2)[C@@H](C(=O)NCC2CCN(C(=O)OC(C)(C)C)CC2)C1 [Example 644, 4-({[(R)-4-acetyl-1-(4-trifluoromethoxy-benzenesulfonyl)-piperazine-2-carbonyl]-amino}-methyl)-piperidine-1-carboxylic acid tert-butyl ester] | > 1000 | > 1000 | – | – |
| CCCc1ccc(CNC(=O)[C@H]2CN(c3n[nH]c(=O)s3)CCN2S(=O)(=O)c2ccc(OC(F)(F)F)cc2)cc1 [Example 516, (R)-4-(5-oxo-4,5-dihydro-[1,3,4]thiadiazol-2-yl)-1-(4-trifluoromethoxy-benzenesulfonyl)-piperazine-2-carboxylic acid 4-propyl-benzylamide] | < 100 | < 100 | – | – |
| CCC(F)(F)c1ccc(CNC(=O)[C@H]2CN(c3cc(N)ncn3)CCN2S(=O)(=O)c2ccc(OC(F)(F)F)cc2)cc1 [Example 605, (R)-4-(6-amino-pyrimidin-4-yl)-1-(4-trifluoromethoxy-benzenesulfonyl)-piperazine-2-carboxylic acid 4-(1,1-difluoro-propyl)-benzylamide] | < 100 | < 100 | – | – |
| CC(=O)N1CCN(S(=O)(=O)c2ccc(OCC(F)(F)F)cc2)[C@@H](C(=O)NCc2ccc(C(C)C)cc2)C1 [Example 284, (R)-4-acetyl-1-[4-(2,2,2-trifluoro-ethoxy)-benzenesulfonyl]-piperazine-2-carboxylic acid 4-isopropyl-benzylamide] | 100 to 1000 | < 100 | – | – |
| CC(C)(O)C#Cc1ncc2sc(N3CCN(S(=O)(=O)c4ccc(OC(F)(F)F)cc4)[C@@H](C(=O)NCc4ccc(OC(F)(F)F)cc4)C3)nc2n1 [Example 994, (R)-4-[5-(3-hydroxy-3-methyl-but-1-ynyl)-thiazolo[4,5-d]pyrimidin-2-yl]-1-(4-trifluoromethoxy-benzenesulfonyl)-piperazine-2-carboxylic acid 4-trifluoromethoxy-benzylamide] | – | – | < 100 | < 100 |
| CCC(F)(F)c1ccc(CNC(=O)[C@H]2CN(c3ccc4cnccc4n3)CCN2S(=O)(=O)c2ccc(OC(F)(F)F)cc2)cc1 [Example 740, (R)-4-[1,6]naphthyridin-2-yl-1-(4-trifluoromethoxy-benzenesulfonyl)-piperazine-2-carboxylic acid 4-(1,1-difluoro-propyl)-benzylamide] | – | – | < 100 | < 100 |
| CC(=O)N1CCN(S(=O)(=O)c2cccc(C(=O)O)c2)C(C(=O)NCc2ccc(C(F)(F)F)cc2)C1 (stereo not shown) [Example 168, 3-[4-acetyl-2-(4-trifluoromethyl-benzylcarbamoyl)-piperazine-1-sulfonyl]-benzoic acid] | > 1000 | > 1000 | – | – |
| CCCc1ccc(CNC(=O)[C@H]2CN(c3nc(C)c(C(=O)O)s3)CCN2S(=O)(=O)c2ccc(OC(F)(F)F)cc2)c(C)c1 [Example 341, 4-methyl-2-[(R)-3-(2-methyl-4-propyl-benzylcarbamoyl)-4-(4-trifluoromethoxy-benzenesulfonyl)-piperazin-1-yl]-thiazole-5-carboxylic acid] | < 100 | < 100 | – | – |
| O=C(NCc1ccc(C(F)(F)F)cc1)[C@H]1CN(c2cnc3cncnc3n2)CCN1S(=O)(=O)c1ccc(OC(F)(F)F)cc1 [Example 660, (R)-4-pteridin-7-yl-1-(4-trifluoromethoxy-benzenesulfonyl)-piperazine-2-carboxylic acid 4-trifluoromethyl-benzylamide] | < 100 | < 100 | – | – |
| CN(C)c1ccc(CNC(=O)C2CN(C(=O)CN)CCN2S(=O)(=O)c2ccc(I)cc2)cc1 (stereo not shown) [Example 88, 4-(2-amino-acetyl)-1-(4-iodo-benzenesulfonyl)-piperazine-2-carboxylic acid 4-dimethylamino-benzylamide hydrochloride] | > 1000 | > 1000 | – | – |
| CC(C)c1ccc(CNC(=O)[C@H]2CN(c3cc(C(=O)O)ccn3)CCN2S(=O)(=O)c2ccc(C(F)(F)F)cc2)cc1 [Example 349, 2-[(R)-3-(4-isopropyl-benzylcarbamoyl)-4-(4-trifluoromethyl-benzenesulfonyl)-piperazin-1-yl]-isonicotinic acid trifluoroacetate] | > 1000 | 100 to 1000 | – | – |
| CCC(F)(F)c1ccc(CNC(=O)[C@H]2CN(C(=O)Cn3nnnc3C(C)C)CCN2S(=O)(=O)c2ccc(OC(F)(F)F)cc2)cc1 [Example 541, (R)-4-[2-(5-isopropyl-tetrazol-1-yl)-acetyl]-1-(4-trifluoromethoxy-benzenesulfonyl)-piperazine-2-carboxylic acid 4-(1,1-difluoro-propyl)-benzylamide] | 100 to 1000 | 100 to 1000 | – | – |
| CCCc1ccc(CNC(=O)[C@H]2CN(c3cnc4cncc(C(=O)O)c4n3)CCN2S(=O)(=O)c2ccc(C(F)(F)F)cc2)cc1 [Example 842, 2-[(R)-3-(4-propyl-benzylcarbamoyl)-4-(4-trifluoromethyl-benzenesulfonyl)-piperazin-1-yl]-pyrido[3,4-b]pyrazine-8-carboxylic acid] | – | – | < 100 | < 100 |
| CCCCc1ccc(CNC(=O)[C@H]2CN(c3cnc4cncc(C(=O)O)c4n3)CCN2S(=O)(=O)c2ccc(CC)cc2)cc1 [Example 855, 2-[(R)-3-(4-butyl-benzylcarbamoyl)-4-(4-ethyl-benzenesulfonyl)-piperazin-1-yl]-pyrido[3,4-b]pyrazine-8-carboxylic acid] | – | – | < 100 | < 100 |
| CCC(F)(F)c1ccc(CNC(=O)[C@H]2CN(c3cnc4cnccc4n3)CCN2S(=O)(=O)c2ccc(OC(F)(F)F)cc2)cc1 [Example 648, (R)-4-pyrido[3,4-b]pyrazin-2-yl-1-(4-trifluoromethoxy-benzenesulfonyl)-piperazine-2-carboxylic acid 4-(1,1-difluoro-propyl)-benzylamide] | < 100 | < 100 | – | – |
| CC(C)c1ccc(CNC(=O)[C@H]2CN(c3ncc(C(=O)O)s3)CCN2S(=O)(=O)c2ccc(C(F)(F)F)cc2)cc1 [Example 315, 2-[(R)-3-(4-isopropyl-benzylcarbamoyl)-4-(4-trifluoromethyl-benzenesulfonyl)-piperazin-1-yl]-thiazole-5-carboxylic acid] | 100 to 1000 | < 100 | – | – |
